The results in this text go back to the OPERA property sets (Mansouri et al. 2018).

Conditions in one data set: not given
`CCCc1cc(=O)[nH]c(=S)[nH]1`: the melting point was found to be 219 °C and the ready biodegradability entry is “not readily biodegradable”. As to `CCCCC=O`, the boiling point was 103 °C, the log10 Henry constant (atm·m³/mol) was -3.83, the log10 vapour pressure (mmHg) worked out at 1.42 and the melting point was -91.5 °C. In the case of `COc1ccccc1-c1ccccc1`, the boiling point is 274 °C and the melting point was found to be 29 °C.

`COC(=O)C1CC(=O)N(C)C1` (stereo not given): the melting point stood at 15 °C. Compound `O=CC1CCCC1` showed a boiling point of 134 °C. On to `CC(C)NNC(=O)COc1ccc(Cl)cc1`, for which the melting point was 93.5 °C. The compound `ClCc1ccc(Cl)cc1` yielded a boiling point of 223 °C and a melting point of 31 °C.

In turn, `c1ccc(C2OCCCO2)cc1` displayed a boiling point of 253 °C and a melting point of 41 °C. The compound `Cc1cn[nH]c1` registered a boiling point of 206 °C. `CC(CCCC(=O)O)C(=O)O` (stereo not given) returned a melting point of 64 °C. As to `C#CC(OC(=O)C1C(C=C(C)C)C1(C)C)/C(C)=C/CC` (stereo not given), the boiling point turned out to be 296 °C and the log10 vapour pressure (mmHg) is -3.98. Regarding `CCCc1ssc(=S)c1C`, the melting point is 49 °C. In turn, `CC(=O)c1cccc(C(C)=O)c1` displayed a melting point of 32 °C.

In the case of `CC(CO)(CO)[N+](=O)[O-]`, the melting point was found to be 150 °C.

On to `C=CCO`, for which the boiling point is 97 °C, the log10 Henry constant (atm·m³/mol) is -5.3, the log10 vapour pressure (mmHg) was 1.42 and the melting point is -129 °C. The ready biodegradability result is given as “readily biodegradable”.

In turn, `CC(C)(OCc1ccc(-c2ccc(Cl)cc2)cc1)C(=O)O` yielded a melting point of 154 °C. On to `Nc1ccc2c(c1)C(=O)c1ccccc1C2=O`, for which the log10 vapour pressure (mmHg) is -10.3, the melting point came to 304 °C and the ready biodegradability result is on record as “not readily biodegradable”. With `CC(C)CC#N`, the boiling point was 128 °C and the melting point is -101 °C. On to `CN(C)C(=O)Nc1ccc(Oc2ccc(Cl)cc2)cc1`, for which the log10 Koc (L/kg) amounted to 3.55, the log10 vapour pressure (mmHg) was -8.41, the melting point was determined as 151 °C and the ready biodegradability entry is listed as “not readily biodegradable”. In turn, `CCCCNC(=O)NS(=O)(=O)c1ccc(N)cc1` yielded a melting point of 144 °C. The compound `CCOC(=O)C1CCC1` returned a boiling point of 159 °C. On to `NC=S`, for which the melting point is 26.5 °C. Consider `O=C(O)CCl`, for which the boiling point came to 189 °C, the log10 Henry constant (atm·m³/mol) is -8.03, the log10 vapour pressure (mmHg) was -1.19 and the melting point is 63 °C. The ready biodegradability entry is “readily biodegradable”. As for `CCCCCCCCCCCCCCCC(C)=O`, the boiling point turned out to be 320 °C and the melting point was found to be 48 °C. In turn, `CC(=O)OCC1=C[C@@H]2OC(=O)C3=COC(O[C@@H]4O[C@H](CO)[C@@H](O)[C@H](O)[C@H]4O)C1C32` (stereo not given in full) showed a melting point of 132 °C. Compound `CCc1oc2ccccc2c1C(=O)c1ccc(O)cc1` showed a melting point of 124 °C.

For the compound `O=c1c2ccccc2sc2ccccc12`, the boiling point came out at 373 °C and the melting point stood at 209 °C. Compound `CC(=O)C(Cl)Cl` showed a boiling point of 120 °C and a log10 vapour pressure (mmHg) of 1.43. `CCCCCCCCCCCCOc1ccc(C(=O)O)cc1` yielded a melting point of 95 °C. Compound `O=NN(CCCl)C(=O)NCCCl` returned a melting point of 31 °C. For the compound `N#Cc1ccccc1C#N`, the melting point amounted to 140 °C and the ready biodegradability result is “not readily biodegradable”. For the compound `Clc1ccc(Cl)c(Oc2ccccc2)c1`, the log10 vapour pressure (mmHg) is -3. Compound `O=c1ccoc2ccccc12` gave a melting point of 59 °C. As to `O=C(Br)c1ccccc1`, the boiling point is 218 °C, the log10 vapour pressure (mmHg) was -0.654 and the melting point was -24 °C. On to `CC(=O)OCC1CCCO1` (stereo not given), for which the boiling point is 193 °C.

As to `FC1(F)C(Cl)=C(Cl)C(F)(F)C(F)(F)C1(F)F`, the boiling point amounted to 113 °C and the melting point is -70 °C. Consider `CC(C)NNC(C)C`, for which the boiling point was 125 °C. With `FC(F)(F)c1ccc(Cl)nc1`, the boiling point was 153 °C and the melting point is 33 °C. For the compound `CC(C)(C)C(C)(C)C`, the boiling point worked out at 106 °C, the log10 vapour pressure (mmHg) was determined as 1.32 and the melting point came out at 101 °C. `c1cc(-c2ncco2)cc(-c2ncco2)c1`: the ready biodegradability entry is reported as “not readily biodegradable”. Consider `CCCN(CCC)C(=O)SCC`, for which the log10 Koc (L/kg) amounted to 2.38 and the log10 vapour pressure (mmHg) was -1.62. The compound `CC1CS(=O)(=O)CCN1N=Cc1ccc([N+](=O)[O-])o1` (stereo not given) came in with a melting point of 181 °C.

Staying with this data set, now noted: fish.
Consider `Nc1ccc2c(c1)C(=O)c1ccccc1C2=O`, for which the log10 BCF worked out at 1.51 and the log10 biotransformation half-life (days) is -1.06. As for `Clc1cc(Cl)c(-c2cc(Cl)c(Cl)c(Cl)c2)cc1Cl`, the log10 biotransformation half-life (days) came out at 2.43.

For `N#Cc1ccccc1C#N`, the log10 BCF was found to be 0.7 and the log10 biotransformation half-life (days) was -0.67.

One may read the melting point as the temperature of the solid-liquid transition. Usually boiling point stands for the temperature of boiling at a given pressure.
